Assay results as given in ChEMBL document CHEMBL4304783, “Discovery of a Novel Selective Dual Peroxisome Proliferator-Activated Receptor α/δ Agonist for the Treatment of Primary Biliary Cirrhosis” (ACS Med Chem Lett, 2019).

Key:
[1] = AUC (0 to last) in C57BL/6J mouse at 1 mg/kg, iv measured upto 24 hrs by LC-MS/MS analysis; format: ADME, organism-based; set-up: dose 1 mg/kg, time 0 - last, route intravenous; settings: in vivo
[2] = Apparent permeability across apical to basolateral side in human Caco2 cells at 2 uM incubated for 120 mins by LC-MS/MS analysis; format: ADME, cell-based; settings: Caco-2
[3] = Clearance in C57BL/6J mouse at 1 mg/kg, iv measured upto 24 hrs by LC-MS/MS analysis; format: ADME, organism-based; settings: in vivo
[4] = target: T1, Peroxisome proliferator-activated receptor alpha (Homo sapiens, UniProt Q07869); assay: Agonist activity at PPARalpha (unknown origin) incubated for 3 to 16 hrs by pathhunter nuclear hormone receptor assay
T1 sequence (Q07869 whole entry): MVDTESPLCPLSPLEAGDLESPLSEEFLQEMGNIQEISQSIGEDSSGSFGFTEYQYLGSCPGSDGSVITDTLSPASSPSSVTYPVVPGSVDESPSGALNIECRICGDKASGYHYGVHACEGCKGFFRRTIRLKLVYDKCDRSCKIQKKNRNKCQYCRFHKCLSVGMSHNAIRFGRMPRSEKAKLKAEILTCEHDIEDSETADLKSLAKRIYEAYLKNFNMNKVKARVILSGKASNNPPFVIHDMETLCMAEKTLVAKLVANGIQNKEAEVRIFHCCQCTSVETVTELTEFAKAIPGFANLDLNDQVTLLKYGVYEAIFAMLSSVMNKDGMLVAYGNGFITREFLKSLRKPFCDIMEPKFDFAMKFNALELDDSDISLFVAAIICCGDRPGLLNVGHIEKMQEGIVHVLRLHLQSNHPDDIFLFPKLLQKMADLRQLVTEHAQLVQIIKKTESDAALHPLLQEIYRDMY

[5] = target: T2, Peroxisome proliferator-activated receptor gamma (Homo sapiens) (UniProt P37231); assay: Agonist activity at PPARgamma (unknown origin) incubated for 3 to 16 hrs by pathhunter nuclear hormone receptor assay relative to Troglitazone
T2 sequence (whole entry): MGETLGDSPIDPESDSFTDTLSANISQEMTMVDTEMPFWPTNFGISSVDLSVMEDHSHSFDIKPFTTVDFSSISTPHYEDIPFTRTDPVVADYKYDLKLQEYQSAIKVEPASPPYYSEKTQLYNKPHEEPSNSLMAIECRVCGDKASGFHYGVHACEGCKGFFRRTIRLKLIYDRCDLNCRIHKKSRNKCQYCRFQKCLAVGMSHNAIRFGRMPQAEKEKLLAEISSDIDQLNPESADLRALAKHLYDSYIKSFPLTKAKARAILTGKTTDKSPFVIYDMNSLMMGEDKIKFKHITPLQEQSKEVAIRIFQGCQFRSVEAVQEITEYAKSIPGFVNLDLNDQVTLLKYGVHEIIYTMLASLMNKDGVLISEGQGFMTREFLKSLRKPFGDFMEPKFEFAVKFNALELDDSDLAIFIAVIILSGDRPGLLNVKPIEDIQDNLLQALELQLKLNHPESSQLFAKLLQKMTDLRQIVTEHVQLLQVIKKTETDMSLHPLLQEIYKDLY

Bile acid receptor = target: T3, Bile acid receptor (Homo sapiens, UniProt Q96RI1); assay: Binding affinity to human recombinant GST-tagged FXR LBD (193-472 residues) expressed in baculovirus infected insect cells incubated for 1 hr by luminometry
T3 sequence (Q96RI1 whole entry): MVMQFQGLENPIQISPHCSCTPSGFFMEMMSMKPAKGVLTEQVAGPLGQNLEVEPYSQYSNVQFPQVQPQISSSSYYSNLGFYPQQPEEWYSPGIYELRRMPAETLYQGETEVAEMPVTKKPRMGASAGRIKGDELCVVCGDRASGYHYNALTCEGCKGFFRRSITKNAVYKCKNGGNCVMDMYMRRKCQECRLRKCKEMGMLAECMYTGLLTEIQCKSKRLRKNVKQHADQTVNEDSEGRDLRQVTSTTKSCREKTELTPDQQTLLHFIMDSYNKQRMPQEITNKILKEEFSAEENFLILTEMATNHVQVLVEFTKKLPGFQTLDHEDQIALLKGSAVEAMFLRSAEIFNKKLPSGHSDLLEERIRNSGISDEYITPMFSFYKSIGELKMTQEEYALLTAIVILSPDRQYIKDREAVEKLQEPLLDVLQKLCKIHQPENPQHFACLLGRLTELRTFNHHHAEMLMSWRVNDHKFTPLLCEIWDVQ

[6] = AUC (0 to last) in Sprague-Dawley rat at 1 mg/kg, iv measured upto 24 hrs by LC-MS/MS analysis; format: ADME, organism-based; set-up: dose 1 mg/kg, route intravenous, time 0 - last; settings: in vivo
[7] = target: T4, Peroxisome proliferator-activated receptor alpha (Homo sapiens) (UniProt Q07869); assay: Agonist activity at PPARalpha (unknown origin) incubated for 3 to 16 hrs by pathhunter nuclear hormone receptor assay relative to GW7647; set-up: concentration or dose not given beside the values
T4 sequence (whole entry): T1 sequence (Q07869 whole entry)

Cytochrome P450 2C9 = Cytochrome P450 2C9 (Homo sapiens, UniProt P11712); assay: Inhibition of CYP2C9 in human liver microsomes using diclofenac as substrate incubated for 10 mins followed by substrate addition further incubated for 10 mins by LC-MS/MS analysis; format: ADME
Chain of Cytochrome P450 2C9 (P11712 whole entry): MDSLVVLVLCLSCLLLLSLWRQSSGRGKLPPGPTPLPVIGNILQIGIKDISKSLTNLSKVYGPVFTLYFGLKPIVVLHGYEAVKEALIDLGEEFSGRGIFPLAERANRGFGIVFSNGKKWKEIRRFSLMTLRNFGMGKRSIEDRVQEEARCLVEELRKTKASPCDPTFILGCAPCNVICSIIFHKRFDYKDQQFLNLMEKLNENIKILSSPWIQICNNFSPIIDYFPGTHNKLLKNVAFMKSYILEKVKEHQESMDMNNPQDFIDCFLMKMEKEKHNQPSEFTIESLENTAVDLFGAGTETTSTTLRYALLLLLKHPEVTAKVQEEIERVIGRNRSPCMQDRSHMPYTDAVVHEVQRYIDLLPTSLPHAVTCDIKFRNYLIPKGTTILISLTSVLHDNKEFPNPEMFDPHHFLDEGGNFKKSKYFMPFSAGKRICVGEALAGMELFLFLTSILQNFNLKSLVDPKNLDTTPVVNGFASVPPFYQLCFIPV

Rattus norvegicus = assay: Hepatoprotective activity in Sprague-Dawley rat assessed as reduction in ANIT-stimulated fibrosis area at 3 mg/kg, ig administered for 8 days by hematoxylin and eosin staining based mopho-metric analysis relative to control; format: functional; set-up: scale not given: the % may be the effect or the level left
Cytochrome P450 1A2 = target: T5, Cytochrome P450 1A2 (Homo sapiens, UniProt P05177); assay: Inhibition of CYP1A2 in human liver microsomes using phenacetin as substrate incubated for 10 mins followed by substrate addition further incubated for 10 mins by LC-MS/MS analysis; format: ADME
T5 sequence (P05177 whole entry): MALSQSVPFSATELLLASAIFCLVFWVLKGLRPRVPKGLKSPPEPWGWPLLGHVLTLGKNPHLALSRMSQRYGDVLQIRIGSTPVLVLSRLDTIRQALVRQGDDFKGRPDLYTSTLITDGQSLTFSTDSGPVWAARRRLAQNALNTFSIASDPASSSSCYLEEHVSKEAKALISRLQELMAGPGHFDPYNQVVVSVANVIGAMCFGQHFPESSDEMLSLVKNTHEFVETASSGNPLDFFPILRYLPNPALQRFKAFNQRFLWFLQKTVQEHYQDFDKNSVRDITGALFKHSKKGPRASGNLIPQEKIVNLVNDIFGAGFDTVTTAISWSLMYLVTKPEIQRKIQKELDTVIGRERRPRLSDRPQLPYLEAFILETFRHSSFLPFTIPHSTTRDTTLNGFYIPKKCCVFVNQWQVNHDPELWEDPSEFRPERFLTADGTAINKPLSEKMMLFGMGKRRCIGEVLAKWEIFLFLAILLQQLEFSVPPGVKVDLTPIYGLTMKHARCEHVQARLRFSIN

[8] = Stability in human plasma assessed as remaining compound incubated for 2 hrs; format: ADME, cell-free; settings: read-out: Stability
[9] = Clearance in Sprague-Dawley rat at 1 mg/kg, iv measured upto 24 hrs by LC-MS/MS analysis; format: ADME, organism-based; settings: in vivo

SMILES: Cc1cc(Cc2cc(-c3ccc(Br)cc3)on2)cc(C)c1OC(C)(C)C(=O)O
- AUC(0-t) at 24 h [1]: 10.6 µM·h
- Papp A→B at 2 h, 2 µM [2]: 0.5 ×10⁻⁶ cm/s
- clearance [3]: 3.53 mL/min/kg
- EC50 [4]: 0.008 µM
- Activity [5]: 110%
- IC50 (Bile acid receptor): > 50 µM
- AUC(0-t) at 24 h [6]: 105 µM·h
- Activity [7]: 92%
- IC50 (Cytochrome P450 2C9): 20 µM
- Activity (Rattus norvegicus): 28%
- IC50 (Cytochrome P450 1A2): 10 µM
- remaining at 2 h [8]: 88%
- clearance [9]: 0.35 mL/min/kg
